Measurements: patent publication US8741567B2, “Composition and methods related to modification of 5-hydroxymethylcytosine (5-hmC)” (The University of Chicago, priority 2010, dated 2014)

Assays:
wild-type βGT = wild-type βGT (Enterobacteria phage T4, UniProt P04547)
Taq polymerase = molecular target: T1, Taq polymerase (Thermus aquaticus, UniProt P19821); test: Primer extension assay on 40-mer DNA template; type: biochemical; settings: streptavidin added (6 eq.-48 eq.), 72° C., 1 min
T1 construct: purchased Sigma
From the text: FIGS. 9A-9B. The streptavidin adduct of biotin-5-N3-gmC hinders primer extension. (A) Sequence of 40 mer DNA containing cytosines derivatives used in primer extension. Cytosine 25, counting from right to left, with an asterisk presented the modified cytosines in the sequences, and also the position at which DNA polymerases tended to stall when the streptavidine adduct of biotin-5-N3-gmC-containing DNA was used as template. The arrow corresponded to the reverse PCR primer used for primer extension. (B) Primer extension assays for 40 mer DNA containing different cytosine species, shown beside a Sanger sequencing ladder. […] Position with the most significant stalling was position 24, one base before the modified position, although significant stalling still observed in the modified position (position 25, arrow). Primer extension using Sigma TaqRED polymerase, extension at 72° C. for 1 min. Sequencing ladder was performed with Sequenase from USB.
The properties of 5-hmC in duplex DNA are quite similar to those of 5-mC in terms of its sensitivity toward enzymatic reactions such as restriction enzyme digestion and polymerization (Flusberg et al., 2010; Josse and Kornberg, 1962; Lariviere and Morera, 2004). In an attempt to develop a method to differentiate these two bases in DNA, primer extension with a biotin-N3-5-gmC-modified DNA template was tested. […]

TaqαI = molecular target: T2, TaqαI (Thermus aquaticus, UniProt P14386); test: TaqαI digestion of 32-mer dsDNA with T*CGA; settings: 100 U TaqαI, 1 hr, 65° C.
T2 sequence (P14386 1-263): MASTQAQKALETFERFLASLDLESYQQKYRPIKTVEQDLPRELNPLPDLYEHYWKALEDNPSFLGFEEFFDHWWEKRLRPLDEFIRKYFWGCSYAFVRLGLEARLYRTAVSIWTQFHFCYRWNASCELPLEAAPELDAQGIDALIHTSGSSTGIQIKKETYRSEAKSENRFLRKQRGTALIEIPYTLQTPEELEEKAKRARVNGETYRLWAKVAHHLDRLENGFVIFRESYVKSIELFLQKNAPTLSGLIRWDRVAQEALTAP

MspI [1] = molecular target: T3, MspI (Moraxella sp, UniProt P11405); test: MspI digestion of 32-mer dsDNA with C*CGG; settings: 100 U MspI, 1 hr, 37° C.
MspI [2] = molecular target: T3, MspI; test: MspI restriction digestion of 40-mer DNA with CC*GG; type: biochemical; settings: 40-mer duplex DNA
From the text: FIG. 2. Restriction enzyme digestion assay of a 40 mer DNA with CC*GG (where C*=C, 5-meC, 5-hmC, or 5-gmC).
The inventors tested a restriction enzyme digestion assay with a 40-mer DNA containing a CC*GG (C*=C, 5-meC, 5-hmC, or 5-gmC) sequence in the middle. […] With bulkier groups on 5-hmC, digestions by other restriction enzymes that recognize DNA sequences containing CpG can be blocked.

HpaII = HpaII (Haemophilus parainfluenzae, UniProt P36433); type: biochemical; settings: 40-mer DNA
[3] = system: four different polymerases; test: Primer extension and PCR with 5-gmC-containing DNA; type: biochemical
From the text: The inventors synthesized the phosphoramidite of 5-hmC (now commercially available from Glen Research) and prepared duplex DNA with 5-hmC incorporated at specific locations.

T3 sequence (P11405 whole entry): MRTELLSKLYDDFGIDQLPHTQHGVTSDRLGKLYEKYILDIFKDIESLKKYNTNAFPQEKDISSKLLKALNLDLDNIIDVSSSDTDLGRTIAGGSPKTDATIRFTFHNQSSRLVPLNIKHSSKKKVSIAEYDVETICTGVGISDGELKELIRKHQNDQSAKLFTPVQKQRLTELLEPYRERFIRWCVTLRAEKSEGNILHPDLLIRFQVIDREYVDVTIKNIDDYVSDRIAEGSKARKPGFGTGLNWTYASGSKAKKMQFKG
wild-type βGT, sequence (P04547 with tags, fused parts or gaps): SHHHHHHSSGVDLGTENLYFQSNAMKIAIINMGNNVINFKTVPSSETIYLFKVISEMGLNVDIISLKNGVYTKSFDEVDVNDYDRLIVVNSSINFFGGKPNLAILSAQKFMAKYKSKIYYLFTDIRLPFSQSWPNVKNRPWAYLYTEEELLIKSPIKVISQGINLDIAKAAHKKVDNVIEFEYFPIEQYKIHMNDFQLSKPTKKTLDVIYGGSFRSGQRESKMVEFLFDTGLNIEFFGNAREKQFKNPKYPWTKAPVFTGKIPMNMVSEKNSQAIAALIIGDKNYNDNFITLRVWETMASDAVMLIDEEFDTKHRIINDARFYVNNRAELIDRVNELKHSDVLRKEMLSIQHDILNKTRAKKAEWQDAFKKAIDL
HpaII, sequence (P36433 whole entry, looked up): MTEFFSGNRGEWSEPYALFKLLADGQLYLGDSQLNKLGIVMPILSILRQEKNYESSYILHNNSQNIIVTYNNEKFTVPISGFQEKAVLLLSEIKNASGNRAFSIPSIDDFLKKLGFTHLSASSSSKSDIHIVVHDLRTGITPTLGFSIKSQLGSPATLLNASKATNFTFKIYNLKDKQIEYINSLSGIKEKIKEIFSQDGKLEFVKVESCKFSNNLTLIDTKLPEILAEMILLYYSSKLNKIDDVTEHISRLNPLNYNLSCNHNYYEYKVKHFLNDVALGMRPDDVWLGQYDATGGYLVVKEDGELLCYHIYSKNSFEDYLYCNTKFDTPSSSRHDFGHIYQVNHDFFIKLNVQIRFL
T1 sequence (P19821 whole entry): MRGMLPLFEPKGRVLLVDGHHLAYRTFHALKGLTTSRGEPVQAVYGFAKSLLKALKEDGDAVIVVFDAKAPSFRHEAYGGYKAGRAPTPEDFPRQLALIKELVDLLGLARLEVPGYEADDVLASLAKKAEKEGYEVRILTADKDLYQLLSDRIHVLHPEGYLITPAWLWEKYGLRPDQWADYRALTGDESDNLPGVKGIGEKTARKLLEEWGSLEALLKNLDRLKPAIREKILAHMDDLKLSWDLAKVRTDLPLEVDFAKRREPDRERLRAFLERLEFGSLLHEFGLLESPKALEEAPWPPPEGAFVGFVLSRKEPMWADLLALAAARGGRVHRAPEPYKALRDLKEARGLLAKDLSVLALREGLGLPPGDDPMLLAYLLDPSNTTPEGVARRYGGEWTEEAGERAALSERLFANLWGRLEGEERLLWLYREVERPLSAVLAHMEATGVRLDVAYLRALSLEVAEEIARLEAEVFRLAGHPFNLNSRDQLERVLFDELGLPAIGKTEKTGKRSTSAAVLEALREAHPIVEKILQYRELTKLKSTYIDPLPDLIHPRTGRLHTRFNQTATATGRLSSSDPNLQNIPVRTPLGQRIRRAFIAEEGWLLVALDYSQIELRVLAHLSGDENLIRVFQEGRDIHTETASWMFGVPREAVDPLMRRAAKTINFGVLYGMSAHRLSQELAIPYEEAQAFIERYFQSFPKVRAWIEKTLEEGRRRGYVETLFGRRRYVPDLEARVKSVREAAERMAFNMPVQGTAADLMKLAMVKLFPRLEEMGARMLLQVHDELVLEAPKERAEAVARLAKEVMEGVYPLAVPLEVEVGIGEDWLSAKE

Uridine 5′-(2,3,4-tri-O-acetyl-6-azido-6-deoxy-α-D-glucopyranosyl)diphosphate bistriethylammonium salt [UDP-6-N3-Glu]
efficiency of transfer to 5-hmC-containing duplex DNA relative to UDP-Glu (wild-type βGT): as efficiently as with UDP-Glu
time for 6-N3-glucose transfer reaction to finish (wild-type βGT; 11-mer duplex DNA with 5-hmC, as low as 1% enzyme concentration): ≤ 5 min

β-6-azide-glucosyl-5-hydroxymethyl-cytosine [N3-5-gmC]
primer extension on modified template with streptavidin (Taq polymerase): completely stalled
TaqαI digestion, hemi-modified DNA (TaqαI; hemi-hydroxymethylation): cannot block digestion as well as the fully-modified one
TaqαI digestion, fully-modified DNA (TaqαI; modified on both strands): only partially
MspI digestion, fully-modified DNA (MspI [1]): block MspI digestion completely
MspI digestion, hemi-modified DNA (MspI [1]): can be protected from digestion

β-glucosyl-5-hydroxymethyl-cytosine [5-gmC]
MspI cutting of modified CC*GG site (MspI [2]): completely blocks
MspI cutting of modified CC*GG site (MspI [2]; listed as C(5-gmC)GG): completely blocked
HpaII cutting of modified CC*GG site (HpaII): does not cut
interference with polymerization reaction [3]: does not exhibit any interference
